Data set [1] can be described thus: Solubility in pure water at pH 4.7. It counts as physicochemical.
Data set [2] is filed under the species Homo sapiens. The experiment in a line: Concentration required to inhibit the subsequent monocyte chemotaxis by the compound during the copper catalyzed oxidation of human LDL. It counts as functional.
A short description of data set [3]: Oral bioavailability in rat. In kind it is ADME, organism-based. Conditions: in vivo.
The next data set concerns the target Cytochrome P450 2D6 (Homo sapiens, UniProt P10635). The experiment in a line: Inhibition of cytochrome P450 2D6. It counts as ADME.
Data set [4] in a line: Oral bioavailability in dog. It counts as ADME, organism-based, Canis lupus familiaris. The note with it: in vivo, read-out: Bioavailabiility.
The species named for data set [5] is Homo sapiens. The experiment in a line: Concentration required to inhibit the production of lyso-PtdCho by the compound during the copper catalyzed oxidation of human LDL. It counts as functional.
The target of another data set is T1, Cytochrome P450 1A2 (Homo sapiens, UniProt P05177).
T1 sequence (P05177 whole entry): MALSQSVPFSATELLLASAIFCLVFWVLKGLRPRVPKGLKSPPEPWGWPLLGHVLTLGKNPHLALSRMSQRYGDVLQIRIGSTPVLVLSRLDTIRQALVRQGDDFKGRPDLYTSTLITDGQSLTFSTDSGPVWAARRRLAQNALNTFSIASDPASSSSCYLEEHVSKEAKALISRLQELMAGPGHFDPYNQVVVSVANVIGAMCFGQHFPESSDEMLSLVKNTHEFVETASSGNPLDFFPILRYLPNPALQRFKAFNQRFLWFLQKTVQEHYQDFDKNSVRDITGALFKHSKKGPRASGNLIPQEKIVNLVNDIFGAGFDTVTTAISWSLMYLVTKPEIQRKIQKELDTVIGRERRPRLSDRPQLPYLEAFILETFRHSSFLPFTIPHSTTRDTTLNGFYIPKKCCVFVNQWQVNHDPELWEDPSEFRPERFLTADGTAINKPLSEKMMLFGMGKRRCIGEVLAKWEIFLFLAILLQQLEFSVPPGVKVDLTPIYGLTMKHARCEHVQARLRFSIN
Kind of data set: Inhibition of cytochrome P450 1A2. In kind it is ADME.

A further data set has as its target Cytochrome P450 2C9 (Homo sapiens, UniProt P11712). Kind of data set: Inhibition of cytochrome P450 2C9. It counts as ADME.
Another data set addresses Cytochrome P450 3A4 (Homo sapiens, UniProt P08684). The experiment in a line: Inhibition of cytochrome P450 3A4. It counts as ADME.
Data set [6] can be described thus: Permeability of compound was evaluated in an artificial membrane permeability assay. It counts as ADME, cell membranes. Conditions: PAMPA; read-out: Permeability (converted). Background: In PAMPA a lipid-coated filter parts donor from acceptor wells.
The target of a further data set is Cytochrome P450 2C19 (Homo sapiens, UniProt P33261). The experiment in a line: Inhibition of cytochrome P450 2C19. It counts as ADME.
Chain of Cytochrome P450 2C19 (P33261 whole entry): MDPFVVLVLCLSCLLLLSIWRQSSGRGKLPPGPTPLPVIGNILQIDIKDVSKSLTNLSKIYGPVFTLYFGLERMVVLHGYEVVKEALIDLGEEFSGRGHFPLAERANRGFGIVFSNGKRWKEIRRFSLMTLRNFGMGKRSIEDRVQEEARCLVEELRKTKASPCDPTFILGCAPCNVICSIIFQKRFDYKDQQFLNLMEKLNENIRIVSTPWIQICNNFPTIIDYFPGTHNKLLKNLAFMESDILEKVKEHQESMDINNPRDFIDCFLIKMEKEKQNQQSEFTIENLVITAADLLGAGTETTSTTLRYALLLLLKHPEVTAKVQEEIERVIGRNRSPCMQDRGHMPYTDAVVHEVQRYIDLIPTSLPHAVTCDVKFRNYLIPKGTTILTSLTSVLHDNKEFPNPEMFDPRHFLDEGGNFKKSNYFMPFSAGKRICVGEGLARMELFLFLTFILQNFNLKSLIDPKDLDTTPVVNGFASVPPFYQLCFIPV
Data set [7] addresses T2, Platelet-activating factor acetylhydrolase (Homo sapiens, UniProt Q13093).
T2 sequence (Q13093 whole entry): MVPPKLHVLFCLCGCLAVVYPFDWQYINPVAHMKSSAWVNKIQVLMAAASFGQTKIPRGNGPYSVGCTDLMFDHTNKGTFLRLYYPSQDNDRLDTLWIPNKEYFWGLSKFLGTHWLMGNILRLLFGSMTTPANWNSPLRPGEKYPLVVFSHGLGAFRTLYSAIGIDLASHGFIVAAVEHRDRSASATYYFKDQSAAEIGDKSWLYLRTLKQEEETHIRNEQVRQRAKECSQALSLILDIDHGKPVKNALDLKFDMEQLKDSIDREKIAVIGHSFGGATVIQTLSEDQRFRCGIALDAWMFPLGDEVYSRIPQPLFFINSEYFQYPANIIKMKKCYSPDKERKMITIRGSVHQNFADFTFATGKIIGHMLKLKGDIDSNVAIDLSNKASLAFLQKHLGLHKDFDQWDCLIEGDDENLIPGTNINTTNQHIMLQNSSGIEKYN
The experiment in a line: Inhibitory concentration against Lipoprotein-Associated Phospholipase A2 (Lp-PLA2) was estimated.

Data set [8] is described as follows: Acid dissociation constant was determined for the compound. In kind it is ADME.

Converted amounts (≈) assume the structure as drawn.

Here are results for 18 molecules from ChEMBL document CHEMBL1135959, “The discovery of SB-435495. A potent, orally active inhibitor of lipoprotein-associated phospholipase A(2) for evaluation in man” (Bioorg Med Chem Lett, 2002).

Chain of Cytochrome P450 3A4 (P08684 whole entry): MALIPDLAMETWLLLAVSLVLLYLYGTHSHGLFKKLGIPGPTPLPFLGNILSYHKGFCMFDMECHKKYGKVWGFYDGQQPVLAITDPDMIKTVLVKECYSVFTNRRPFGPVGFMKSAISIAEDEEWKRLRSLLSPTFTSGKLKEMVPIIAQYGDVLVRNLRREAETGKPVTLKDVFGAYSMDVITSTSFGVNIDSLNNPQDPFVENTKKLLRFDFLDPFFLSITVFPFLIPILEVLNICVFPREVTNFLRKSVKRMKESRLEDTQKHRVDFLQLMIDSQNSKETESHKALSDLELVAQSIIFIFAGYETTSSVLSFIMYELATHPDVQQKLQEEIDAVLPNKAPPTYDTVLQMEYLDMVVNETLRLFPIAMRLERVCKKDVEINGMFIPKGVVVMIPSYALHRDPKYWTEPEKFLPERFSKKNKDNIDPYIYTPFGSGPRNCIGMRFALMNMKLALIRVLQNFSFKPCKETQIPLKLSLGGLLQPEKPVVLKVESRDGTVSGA
Chain of Cytochrome P450 2C9 (P11712 whole entry): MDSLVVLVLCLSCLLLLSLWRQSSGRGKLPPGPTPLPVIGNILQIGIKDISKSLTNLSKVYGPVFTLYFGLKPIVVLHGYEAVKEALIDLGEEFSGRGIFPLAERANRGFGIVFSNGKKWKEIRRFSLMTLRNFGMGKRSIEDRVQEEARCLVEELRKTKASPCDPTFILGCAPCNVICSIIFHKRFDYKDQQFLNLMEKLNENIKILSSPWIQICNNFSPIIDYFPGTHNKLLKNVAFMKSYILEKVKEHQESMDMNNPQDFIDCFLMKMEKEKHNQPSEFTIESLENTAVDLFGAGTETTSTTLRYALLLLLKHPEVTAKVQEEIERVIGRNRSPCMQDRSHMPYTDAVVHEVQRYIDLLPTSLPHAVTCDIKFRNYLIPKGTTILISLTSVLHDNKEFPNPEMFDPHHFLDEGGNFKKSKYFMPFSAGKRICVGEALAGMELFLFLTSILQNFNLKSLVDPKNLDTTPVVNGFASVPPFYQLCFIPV
Chain of Cytochrome P450 2D6 (P10635 whole entry): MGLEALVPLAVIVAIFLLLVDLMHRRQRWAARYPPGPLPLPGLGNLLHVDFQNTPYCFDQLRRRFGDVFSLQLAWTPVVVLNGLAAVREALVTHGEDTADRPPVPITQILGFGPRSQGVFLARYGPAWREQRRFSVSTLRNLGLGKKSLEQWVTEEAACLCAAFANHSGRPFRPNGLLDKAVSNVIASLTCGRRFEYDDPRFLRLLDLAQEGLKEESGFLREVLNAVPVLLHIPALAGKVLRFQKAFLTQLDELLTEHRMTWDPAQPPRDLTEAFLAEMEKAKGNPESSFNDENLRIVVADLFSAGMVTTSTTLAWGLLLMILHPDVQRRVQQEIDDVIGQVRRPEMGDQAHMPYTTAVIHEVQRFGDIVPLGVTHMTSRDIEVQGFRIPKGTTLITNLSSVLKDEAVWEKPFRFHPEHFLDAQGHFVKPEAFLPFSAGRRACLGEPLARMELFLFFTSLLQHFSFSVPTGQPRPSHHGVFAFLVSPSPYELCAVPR

Turning to `CCN(CC)CCN(Cc1ccc(-c2ccc(C(F)(F)F)cc2)cc1)C(=O)Cn1cc(Cc2cnn(C)c2)c(=O)nc1SCc1ccc(F)cc1`, the solubility in [1] was 5000 µg/mL (≈ 6.94 mM). Also, the IC50 in the data set filed under Homo sapiens [2] turned out to be 0.01 µM; on Cytochrome P450 2D6, 37 µM; in the data set listed under Homo sapiens [5] it was 0.023 µM; on Cytochrome P450 1A2, 100 µM; against Cytochrome P450 2C9 it was 100 µM; on Cytochrome P450 3A4, 10 µM. The molecule also returned an IC50 on Cytochrome P450 2C19 greater than 40 µM. Further, the bioavailability in data set [3] is 13%; in data set [4], 24%. The Papp in data set [6] is 4.72 ×10⁻⁶ cm/s.
The molecule `Cn1cc(Cc2cn(CC(=O)N(CCO)Cc3ccc(-c4ccc(Cl)cc4)cc3)c(SCc3ccc(F)cc3)nc2=O)cn1` came in with an IC50 against Cytochrome P450 3A4 of 19 µM. Besides, the Papp in [6] is 0.556 ×10⁻⁶ cm/s.
For the molecule `Cn1cc(Cc2cn(CC(=O)N(CCN3CCCCC3)Cc3ccc(-c4ccc(C(F)(F)F)cc4)cc3)c(SCc3ccc(F)cc3)nc2=O)cn1`, the IC50 on Cytochrome P450 3A4 is 10 µM; in data set [7], 0.00017 µM. Also, in data set [6], the Papp was 18.9 ×10⁻⁶ cm/s.
As for `COc1ncc(Cc2cn(CC(=O)N(CCN(C)C)Cc3ccc(-c4ccc(Cl)cc4)cc3)c(SCc3ccc(F)cc3)nc2=O)cn1`, the IC50 in data set [7] was 0.0002 µM.
Turning to `COc1ncc(Cc2cn(CC(=O)N(CC(=O)O)Cc3ccc(-c4ccc(Cl)cc4)cc3)c(SCc3ccc(F)cc3)nc2=O)cn1`, in data set [7], the half-maximal inhibitory concentration (IC50) is 0.001 µM.
`CCN(CC)CCCN(Cc1ccc(-c2ccc(Cl)cc2)cc1)C(=O)Cn1cc(Cc2cnn(C)c2)c(=O)nc1SCc1ccc(F)cc1` came in with a pKa in data set [8] of 9. Half-maximal inhibition against Cytochrome P450 3A4 (IC50) required 2 µM. Moreover, the Papp in data set [6] is less than 0.278 ×10⁻⁶ cm/s.
Regarding `CN1CCN(CCCN(Cc2ccc(-c3ccc(Cl)cc3)cc2)C(=O)Cn2cc(Cc3cnn(C)c3)c(=O)nc2SCc2ccc(F)cc2)CC1`, inhibition against Cytochrome P450 3A4 was half-maximal at 10 µM (IC50). In data set [6], the Papp is less than 0.278 ×10⁻⁶ cm/s.
For `Cn1cc(Cc2cn(CC(=O)N(CCN3CCCC3)Cc3ccc(-c4ccc(Cl)cc4)cc3)c(SCc3ccc(F)cc3)nc2=O)cn1` the same measures were 6 µM and 1.11 ×10⁻⁶ cm/s.
In turn, `CN(C)CCN(Cc1ccc(-c2ccc(Cl)cc2)cc1)C(=O)Cn1cc(Cc2cnn(C)c2)c(=O)nc1SCc1ccc(F)cc1` registered an IC50 at Cytochrome P450 3A4 of 8 µM. Also, in data set [6], the Papp was 0.556 ×10⁻⁶ cm/s.
With `COc1ncc(Cc2cn(CC(=O)N(CC(=O)N(C)C)Cc3ccc(-c4ccc(Cl)cc4)cc3)c(SCc3ccc(F)cc3)nc2=O)cn1`, the IC50 was less than 0.5 µM at Cytochrome P450 3A4 and 0.0002 µM in [7].
Consider `CN(C)C(=O)CN(Cc1ccc(-c2ccc(Cl)cc2)cc1)C(=O)Cn1cc(Cc2cnn(C)c2)c(=O)nc1SCc1ccc(F)cc1`, for which the IC50 at Cytochrome P450 3A4 was greater than 0.5 µM.
For `CCN(CC)CCN(Cc1ccc(-c2ccc(Cl)cc2)cc1)C(=O)Cn1cc(Cc2cnn(C)c2)c(=O)nc1SCc1ccc(F)cc1`, the pKa in data set [8] was determined as 8.3. This molecule came in with an IC50 at Cytochrome P450 3A4 of 5 µM. For the same molecule, the Papp in data set [6] was 8.06 ×10⁻⁶ cm/s.
In the case of `Cn1cc(Cc2cn(CC(=O)N(CCN)Cc3ccc(-c4ccc(Cl)cc4)cc3)c(SCc3ccc(F)cc3)nc2=O)cn1`, the midpoint of inhibition against Cytochrome P450 3A4, the IC50, lay at 15 µM. Further, the Papp in [6] was 0.556 ×10⁻⁶ cm/s.
For `CN(C)CCCN(Cc1ccc(-c2ccc(Cl)cc2)cc1)C(=O)Cn1cc(Cc2cnn(C)c2)c(=O)nc1SCc1ccc(F)cc1` the same measures were 17 µM and 0.278 ×10⁻⁶ cm/s.
As for `COc1ncc(Cc2cn(CC(=O)N(CCO)Cc3ccc(-c4ccc(Cl)cc4)cc3)c(SCc3ccc(F)cc3)nc2=O)cn1`, in data set [7], the IC50 was 0.0002 µM.
`CN(C)CCN(Cc1ccc(-c2ccc(C(F)(F)F)cc2)cc1)C(=O)Cn1cc(Cc2cnn(C)c2)c(=O)nc1SCc1ccc(F)cc1` registered an IC50 at Cytochrome P450 3A4 of 30 µM. The Papp in data set [6] was less than 0.278 ×10⁻⁶ cm/s.
As to `Cn1cc(Cc2cn(CC(=O)N(CC(=O)N3CCOCC3)Cc3ccc(-c4ccc(C(F)(F)F)cc4)cc3)c(SCc3ccc(F)cc3)nc2=O)cn1`, in [7], the IC50 is 0.0001 µM.
The molecule `Cn1cc(Cc2cn(CC(=O)N(CC(=O)O)Cc3ccc(-c4ccc(C(F)(F)F)cc4)cc3)c(SCc3ccc(F)cc3)nc2=O)cn1` showed an IC50 against Cytochrome P450 3A4 of 31 µM. For the same molecule, the Papp in data set [6] is less than 0.278 ×10⁻⁶ cm/s.

What is called solubility is how much of the substance goes into solution per volume. As a reminder, the IC50 is the concentration that gives 50% inhibition. For orientation: pKa means the pH at which an ionisable group is half protonated. Low values mean a group that gives up its proton readily, high ones a group that holds its proton tightly.
